Assay results reported in patent US20120172228A1, “ALCOHOL ALKOXYLATES AS ADJUVANTS FOR AGROCHEMICAL FORMULATIONS” (SYNGENTA CROP PROTECTION, LLC, priority 2009, published 2012).

Key:
Type in all cases: in vivo
[1] = system: chenopodium album (CHEAL), digitaria sanguinalis (DIGSA), setaria viridis (SETVI), abutilon theophrasti (ABUTH); assay: Adjuvant with herbicide nicosulfuron, track sprayer, mean across four weed species
Protocol: (§1) In this example Sample 13 from Table 1 was compared to the oil adjuvant blend Turbocharge™. The herbicide fomesafen was applied to the weed species xanthium strumarium (XANST), setaria viridis (SETVI), abutilon theophrasti (ABUTH), and chenopodium album (CHEAL) at rates of 60 or 120 grams per hectare, using a laboratory track sprayer. Each experiment was replicated four times and the percentage damage to the weeds was assessed visually at time periods of 7, 14 and 21 days after application. Each adjuvant was applied at a rate of 0.5% of the volume of the spray water. Four effects were evaluated: pesticide rate (2 levels), adjuvant type (two levels), weed species (four levels) and days after application (three levels). A standard simple linear model was constructed to judge the significance of these effects. […] The effect of each adjuvant was pulled out from the model and the least significant differences evaluated using a Student's t method. […]
(§2) In this example the butylene oxide adjuvant Sample 13 of Table 1 was compared to the commercial oil adjuvant blend Atplus™411F. […] Each experiment was replicated four times and the percentage damage to the weeds was assessed visually at time periods of 14 and 21 days after application. […]
In this example the rate response of the butylene oxide adjuvant Sample 13 of Table 1 was measured and compared to the adjuvant TEHP. […]

[2] = system: lolium perenne (LOLPE); assay: Adjuvant with herbicide pinoxaden on LOLPE; conditions: 14 and 21 days
Protocol: In this example the response of the butylene oxide adjuvant 13 of Table 1 was measured at an application rate of 0.2% of the volume of the spray solution used. It was compared to the adjuvant tris 2-ethylhexyl phosphate [TEHP], which was applied at the higher rate of 0.5% by volume. The herbicide pinoxaden was applied at rates of 7.5, 11.25 or 15 grams per hectare by a laboratory track sprayer to the weed species lolium perenne (LOLPE), alopecurius myosuirides (ALOMY), and avena fatua (AVEFA). In each case the experiments were replicated four times and the percentage damage to the weeds was assessed visually at time periods of 14 and 21 days after application.

[3] = system: alopecurius myosuirides (ALOMY); assay: Adjuvant with herbicide pinoxaden on ALOMY; conditions: 14 and 21 days
Protocol: as §1, with “levels).” for “levels). A standard simple linear model was constructed to judge the significance of these effects.”
(§3) In this example the responses of the adjuvants 13, 17, 19, 21, 22 and 23 were measured at an application rate of 0.2% of the volume of the spray solution used. […] In each case the experiments were replicated four times and the percentage damage to the weeds was assessed visually at time periods of 14 and 21 days after application.
(§4) In this example the response of butylene oxide sample 27 of Table 1 was measured at an application rate of 0.2% of the volume of the spray solution used. […]

[4] = system: abutilon theophrasti (ABUTH); assay: Adjuvant with herbicide nicosulfuron on ABUTH; conditions: nicosulfuron 30 or 60 g/ha; adjuvants 0.2% of spray water; 14 and 21 days after application
Protocol: as §1, with “levels).” for “levels). A standard simple linear model was constructed to judge the significance of these effects.”
as §2
In this example the responses of the butylene oxide adjuvants 13, 17, 19, 21, 22 and 23 of Table 1 were measured at an application rate of 0.2% of the volume of the spray solution used. […]

[5] = system: setaria viridis (SETVI); assay: Adjuvant with herbicide pinoxaden on SETVI; conditions: pinoxaden 7.5 or 15 g/ha; butylene oxide adjuvants 0.2%, TEHP 0.5% v/v; 14 and 21 days
Protocol: as §1, with “levels).” for “levels). A standard simple linear model was constructed to judge the significance of these effects.”
as §3, §4

[6] = pinoxaden 7.5, 11.25 or 15 g/ha, Sample 13 0.2%, TEHP 0.5%
[7] = pinoxaden 7.5 or 15 g/ha, butylene oxide adjuvants 0.2%, TEHP 0.5% v/v

SMILES: CCCCC(CC)COP(=O)(OCC(CC)CCCC)OCC(CC)CCCC (centres unmarked) [TEHP, tris 2-ethylhexyl phosphate]
- mean efficacy (percentage damage to the weeds), All weeds ([1]; nicosulfuron 30 or 60 g/ha, adjuvants 0.2% of spray water, 14 and 21 days after application): 58.12; B %
- Mean % kill ([1]; nicosulfuron 30 to 60 g/ha, adjuvant rate 0.2% w/v, across four weed species, 14 and 21 days): 58.12%
- mean efficacy (percentage damage to the weeds), LOLPE [2, 6]: 58.06; A %
- mean efficacy (percentage damage to the weeds), LOLPE [2, 7]: 82.5; A %
- mean efficacy (percentage damage to the weeds), ALOMY [3, 6]: 43.33; A %
- mean efficacy (percentage damage to the weeds), ALOMY [3, 7]: 68.75; AB %
- mean efficacy (percentage damage to the weeds), ABUTH [4]: 17.92; B %
- mean efficacy (percentage damage to the weeds), SETVI [5]: 77.5; ABC %
